Data on one molecule can be found in patent US20240051952A1, “HMOX1 INDUCERS” (Mitobridge Inc., priority 2019, published 2024).

The test system of one data set is Heme Oxygenase 1 (HO1). Description: PD study, HMOX1 protein levels in mouse plasma and liver (ELISA). The class given is in vivo. The conditions noted are these: HMOX1 protein fold induction vs time-matched vehicle, 50 mpk oral. On the procedure:
9-10 week old male C57BL/6 mice were dosed orally with 50 mg/kg of vehicle or compound formulated in 5% w/v tween 80 and 0.5% methyl cellulose. At indicated time points (3 and 6 hours or or 4 and 8 hours post-dosing as shown in the results below), whole blood was collected, animal was sacrificed and liver was collected. Blood samples were transferred to vials containing 4 μL of 10% w/v EDTA, centrifuged at 6000 rpm for 8 in below 10° C. to obtain plasma. Samples were frozen and later processed for HMOX1 protein levels as indicated below:
HMOX 1 Protein Levels: Mouse Liver
Preparation of Homogenization/Lysis Buffer
The homogenization buffer was prepared according Table A.
Immediately prior to use, add DTT (ThermoScientific #R0861) to a final concentration of 5 mM and 100×Halt Protease & Phosphatase Inhibitor Cocktail (ThermoScientific #78440) to a final concentration of 1×.
Preparation of Mouse Liver Samples
Liver samples were crushed by mortar and pestle under freezing conditions. Pulverized tissue was transferred into pre-chilled bead ruptor OMNI tubes (OMNI International, Cat #19-628). 1 mL of homogenization buffer (+DTT and HALT) was added to pulverized tissue and tubes were placed on ice. Samples were loaded and run through bead ruptor at speed 5.64 m/s, for two 20 sec cycles with 10 sec dwell between cycles and samples were immediately returned to ice. All material was transferred to a new chilled 2 mL Eppendorf tube. Samples were centrifuged for 5 minutes at 2,000 rpm at 4° C. Supernatant was transferred to a fresh chilled 1.7 mL Eppendorf tube. Samples were centrifuged for 5 minutes at 2,000 rpm at 4° C. The supernatant, consisting of cytosol and microsomes, was transferred to a fresh chilled 1.7 mL Eppendorf tube. Samples were stored at −80° C. Microsome samples were quantitated using Pierce 660 Assay (ThermoFisher Cat #22660) with pre-diluted BSA standards (ThermoFisher Cat #23208) ranging from 125-2000 μg/mL. Each sample was diluted to 10ng/ul for an ELISA input of 0.5ug in 50ul.
Preparation of Assay Reagents
All assay reagents were provided in the Heme Oxygenase 1 (HO1) Mouse SimpleStep ELISA Kit (Abcam #ab204524). Prior to use, all reagents were equilibrated to room temperature. 1×Wash Buffer PT was prepared by diluting 10×Wash Buffer PT 1:10 with deionized water. Antibody cocktail was prepared by diluting the 10×Capture Antibody and 10×Detector Antibody to 1×in Antibody Diluent 5BI. Mouse heme oxygenase 1 protein standard was reconstituted using 500ul homogenization buffer (Table A), mixed and held at room temperature for 10 minutes prior to dilution. An eight point standard curve was generated by diluting the Stock Standard 1:2 for standard curve ranging from 10,000-156.3 pg/mL.
Heme Oxygenase 1 (HO1) Mouse SimpleStep ELISA
50ul of all samples and standards were added to appropriate wells in duplicate. 50ul of 1×Antibody Cocktail was added to each well. The plate was sealed with provided seal and incubated at room temperature on a plate shaker at 400 rpm. After one hour incubation, the Antibody Cocktail was aspirated and the wells were washed three times with 350ul 1×Wash Buffer PT, aspirating completely between each step. After the last wash was aspirated dry, 100ul TMB Substrate was added to each well and the plate was incubated in the dark at room temperature for 10 minutes on a plate shaker at 400 rpm. After the 10 minute incubation, 100ul of Stop Solution was added to each well. Plate was shaken at 400 rpm for 1 minute to mix. Softmax Pro 7.0.3 was used to read OD at 450 nm as well as for analysis.
Heme Oxygenase 1 Protein Levels in Mouse Plasma
All assay reagents were provided in the Heme Oxygenase 1 (HO1) Mouse SimpleStep ELISA Kit (Abcam #ab204524). 1×Wash Buffer PT was prepared by diluting 10×Wash Buffer PT 1:10 with deionized water. Antibody cocktail was prepared by diluting the 10×Capture Antibody and 10×Detector Antibody to 1×in Antibody Diluent 5BI. […]
For orientation: ELISA stands for enzyme-linked immunosorbent assay.

A further data set deals with VCAM-1. In words: VCAM-1 gene expression in TNFα-stimulated primary human endothelial cells. The data set is classed as cell-based. Particulars: HPAEC. An excerpt: Example 150. Gene Expression in Primary Human Endothelial Cells
Inflammatory conditions in endothelial cells increase expression of adhesion molecules, such as VCAM-1, ICAM-1 and E-selectin through NF-kB signaling. HMOX1 −/− endothelial cells show increased expression of VCAM-1 in response to TNF stimulation, as compared to HMOX +/+endothelial cells. See Seldon et al., J Immunol Dec. 1, 2007, 179 (11) 7840-7851.
Primary human pulmonary artery endothelial cells (HPAEC) (Lonza #CC-2530) were seeded in 12-well plates (TrueLine #TR5001) at 200 k cells per well and placed at 37° C. in 5% CO2. 18-24 hr post seeding, cells were treated with the compound of Example 17 via media change. 24 hr post treatment with the compound, cells were treated with 10 ng/mL TNFα (Invitrogen #PHC3015 in H2O) alone or with the compound of Example 17. […] 20ng cDNA was mixed with water, iQ™ SYBR® Green Supermix (BioRad #170-8886), and 300 nM primer (IDT #NM_001078) for a total 10ul reaction and loaded into 384-well white qPCR plates and subsequently analyzed using BioRad CFX384. […] To calculate fold change, the ΔCt on a per sample basis was calculated as Ct (Gene of interest)—Ct (Average of reference genes). The ΔΔCt was then calculated as ΔCt (experimental sample)—Average ΔCt (control group). […]

Regarding `Cn1c(Nc2nc3ccccc3o2)nc2cc(C(=O)NCCOCCO)ccc21` [Example 17, 2-(benzo[d]oxazol-2-ylamino)-N-(2-(2-hydroxyethoxy)ethyl)-1-methyl-1H-benzo[d]imidazole-5-carboxamide], the “Liver Protein (4 h)” value in the data set on Heme Oxygenase 1 (HO1) (mouse liver, 4 hours (Study 702)) was found to be 3.3x*. The “Liver Protein (8 h)” value in the data set on Heme Oxygenase 1 (HO1) (mouse liver, 8 hours (Study 702)) is 3.1x*. Moreover, in the data set with Heme Oxygenase 1 (HO1) (mouse plasma, 4 hours (Study 702)), the “Plasma Protein (4 h)” value is 1.7x*. Also, the “Plasma Protein (8 h)” value in the data set with Heme Oxygenase 1 (HO1) (mouse plasma, 8 hours (Study 702)) stood at 1.1x*. The “TNF-α mediated endothelial cell activation (VCAM-1 expression)” value in the data set on VCAM-1 (24 hr pre-treatment, 10 ng/mL TNFα 4 hours) is “reduced this TNF-α mediated endothelial cell activation”. For the same molecule, the “toxicity, visual inspection of cells” value in the data set on VCAM-1 (after 4 hours of TNFα treatment) is “no toxicity being noted”.
